Results from US20260152487A1 (Sitryx Therapeutics Limited, priority 2021, published 2026).

How the values were obtained:
recombinant human PKM2 = biological target: T1, recombinant human PKM2 (Homo sapiens, UniProt P14618); test: Human PKM2 activation assay (Kinase-Glo Plus luminescent detection of generated ATP); format: biochemical; conditions: for Emax / hPKM2 Emax: percentage activation normalised to DMSO vehicle (LOW) and 5 μM TEPP-46 (HIGH); for Emax: read-out: hPKM2 Emax; for EC50: recombinant human PKM2 activation, 4-parameter logistic fit, read-out: hPKM2 EC50
T1 construct: His (N); purchased R&D Systems
T1 sequence (P14618 2-531 limits assumed): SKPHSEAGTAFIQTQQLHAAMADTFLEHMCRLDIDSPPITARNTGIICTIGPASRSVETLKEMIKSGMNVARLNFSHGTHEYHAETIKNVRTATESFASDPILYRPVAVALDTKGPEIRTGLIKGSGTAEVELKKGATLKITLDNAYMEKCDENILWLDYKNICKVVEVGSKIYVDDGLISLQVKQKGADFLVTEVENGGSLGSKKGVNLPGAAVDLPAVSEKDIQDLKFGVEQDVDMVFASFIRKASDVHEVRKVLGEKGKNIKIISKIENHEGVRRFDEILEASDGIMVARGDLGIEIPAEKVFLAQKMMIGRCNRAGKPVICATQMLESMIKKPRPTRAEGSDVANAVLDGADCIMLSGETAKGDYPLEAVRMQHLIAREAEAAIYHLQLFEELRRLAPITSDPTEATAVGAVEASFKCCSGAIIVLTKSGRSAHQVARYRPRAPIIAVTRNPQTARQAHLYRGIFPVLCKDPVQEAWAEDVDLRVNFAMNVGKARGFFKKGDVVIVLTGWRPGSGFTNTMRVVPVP
Outline: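 N-His-tagged recombinant hPKM2 ([…]) with PEP and ADP was incubated with compound for 60 min at 26 °C, shaking, in 50 mM imidazole, 50 mM KCl, 7 mM MgCl2, 0.01% Tween20, 0.05% BSA, pH 7.2. ATP produced was read by Kinase-Glo Plus luminescence after 15 min.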

recombinant human PKLR = biological target: T2, recombinant human PKLR (Homo sapiens, UniProt P30613); test: Human PKLR activation assay (Kinase-Glo Plus luminescent detection of generated ATP); format: biochemical; conditions: for EC50: activation of recombinant human PKLR, 4-parameter logistic fit, read-out: hPKLR EC50; for Emax: read-out: hPKLR Emax (%)
T2 construct: His (N); purchased R&D Systems
T2 sequence (P30613 whole entry): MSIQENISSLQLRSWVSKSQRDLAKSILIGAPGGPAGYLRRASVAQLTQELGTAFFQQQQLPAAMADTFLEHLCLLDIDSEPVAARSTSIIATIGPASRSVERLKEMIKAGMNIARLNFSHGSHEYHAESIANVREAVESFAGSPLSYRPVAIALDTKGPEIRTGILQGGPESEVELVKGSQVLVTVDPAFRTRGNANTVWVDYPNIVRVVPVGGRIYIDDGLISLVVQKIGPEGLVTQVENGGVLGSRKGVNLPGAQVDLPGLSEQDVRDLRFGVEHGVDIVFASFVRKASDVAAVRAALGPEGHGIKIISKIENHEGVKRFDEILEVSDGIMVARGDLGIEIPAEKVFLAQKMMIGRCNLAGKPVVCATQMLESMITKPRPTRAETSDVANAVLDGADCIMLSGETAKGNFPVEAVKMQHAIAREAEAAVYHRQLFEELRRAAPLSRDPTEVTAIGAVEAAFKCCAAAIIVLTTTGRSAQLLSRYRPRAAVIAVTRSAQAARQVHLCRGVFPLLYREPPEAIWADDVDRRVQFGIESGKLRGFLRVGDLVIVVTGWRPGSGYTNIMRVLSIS
Method: Compound activation of recombinant human PKLR pyruvate kinase activity was determined by biochemical assay. N-terminal His-tagged enzyme was sourced from R&D Systems and its substrates phosphoenolpyruvate (PEP) and ADP from Sigma-Aldrich and 2Bscientific Ltd, respectively. The Kinase-Glo® Plus luminescence assay was from Promega. All other reagents were from Sigma-Aldrich. Test Compounds were prepared as 10 mM DMSO stocks and dilution series prepared in DMSO for direct dilution into Assay Buffer comprising 50 mM imidazole, 50 mM KCl, 7 mM MgCl2, 0.01% Tween20, 0.05% BSA (pH 7.2).
Human PKLR was diluted into Assay Buffer to a final concentration of 5 pM. Enzyme-Assay Buffer mix was dispensed into 384-well shallow-well white-walled plates and Test Compounds added by acoustic dispense (Echo®, Labcyte Inc).
After 60 minutes' incubation on an orbital shaker (300 rpm, 26° C.), enzyme activity was quantified by the luminescent detection of generated ATP. Kinase-Glo® Plus reagent was added to each well and the plates incubated for a further 15 minutes on an orbital shaker in the dark (300 rpm, 26° C.) before luminescence measurement on a plate reader (PHERAstar® FSX, BMG Labtech).
Percentage activation was calculated by normalising […] signals to plate LOW (DMSO vehicle) and HIGH (5 μM TEPP-46) controls. EC50 and Emax values were determined from 4-parameter logistic fits of compound concentration-response curves.

[1] = percentage activation normalised to DMSO vehicle (LOW) and 5 μM TEPP-46 (HIGH) controls

Emax (recombinant human PKM2) | EC50 (recombinant human PKM2) | EC50 (recombinant human PKLR) | Emax (recombinant human PKLR; [1]) | hPKM2 Emax (recombinant human PKM2) | hPKLR Emax (%) (recombinant human PKLR; [1]) | Compound
80.8% | 0.0345 µM | 0.0072 µM | 132% |  |  | COc1ccc(Cn2ncc3cc([S@@](=N)(=O)c4ccc5c(c4)CCO5)ccc3c2=O)cn1 (single isomer, unassigned) [Example 128]
91.2% | 0.0856 µM | 0.014 µM | 133% |  |  | COc1ccc([S@@](=N)(=O)c2ccc3c(=O)n(Cc4ccc(OC)nc4)ncc3c2)cc1 (single isomer, unassigned) [Example 138]
 | 0.0856 µM | 0.014 µM |  | 91.2% | 133% | COc1ccc([S@@](=N)(=O)c2ccc3c(=O)n(Cc4ccc(OC)nc4)ncc3c2)cc1 (single isomer, unassigned) [Example 191]
 | 0.106 µM | 0.241 µM | 129% | 59.1% |  | COc1ccc([S@](=N)(=O)c2ccc3c(=O)n(Cc4ccc(OC)nc4)ncc3c2)cc1 (single isomer, unassigned) [Example 192]
102% | 0.0607 µM | 0.0193 µM | 111% |  |  | COc1ccc(S(=O)(=O)c2ccc3c(=O)n(Cc4cccn(CCO)c4=O)ncc3c2)cc1 [Example 5, 2-((1-(2-hydroxyethyl)-2-oxo-1,2-dihydropyridin-3-yl)methyl)-6-(4-methoxyphenylsulfonyl)phthalazin-1(2H)-one]
119% | 0.0686 µM | 0.0296 µM | 118% |  |  | O=c1c2ccc(S(=O)(=O)c3ccccc3)cc2cnn1Cc1n[nH]cc1F [Example 110, 2-((4-fluoro-1H-pyrazol-3-yl)methyl)-6-(phenylsulfonyl)phthalazin-1(2H)-one]
133% | 0.163 µM | 0.00964 µM | 118% |  |  | COc1ccc(S(=O)(=O)c2ccc3c(=O)n(Cc4ncccc4O)ncc3c2)cc1 [Example 113, 2-((3-hydroxypyridin-2-yl)methyl)-6-(4-methoxyphenylsulfonyl)phthalazin-1(2H)-one]
113% | 0.0783 µM | 0.008 µM | 108% |  |  | Nc1cccc(Cn2ncc3cc(S(=O)(=O)c4ccccc4)ccc3c2=O)c1 [Example 141, 2-(3-aminobenzyl)-6-(phenylsulfonyl)phthalazin-1(2H)-one]
112% | 0.0258 µM | 0.0041 µM | 108% |  |  | COc1ccc(S(=O)(=O)c2ccc3c(=O)n(Cc4cccc(N)c4)ncc3c2)cc1 [Example 142, 2-(3-aminobenzyl)-6-((4-methoxyphenyl)sulfonyl)phthalazin-1(2H)-one]
90.4% | 0.0443 µM | 0.0064 µM | 85.4% |  |  | COc1ccc(Cn2ncc3cc(S(=O)(=O)c4ccc(C)cc4)ccc3c2=O)cn1 [Example 150, 2-((6-methoxypyridin-3-yl)methyl)-6-tosylphthalazin-1(2H)-one]
84.9% | 0.161 µM | 0.0863 µM | 111% |  |  | O=c1c2ccc(S(=O)(=O)c3cnn(C4CC4)c3)cc2cnn1Cc1cccnc1O [Example 193, 6-(1-cyclopropyl-1H-pyrazol-4-ylsulfonyl)-2-((2-hydroxypyridin-3-yl)methyl)phthalazin-1(2H)-one]
113% | 0.0774 µM | 0.106 µM | 112% |  |  | Cn1ccc(Cn2ncc3cc(S(=O)(=O)c4cnn(C5CC5)c4)ccc3c2=O)n1 [Example 194, 6-(1-cyclopropyl-1H-pyrazol-4-ylsulfonyl)-2-((1-methyl-1H-pyrazol-3-yl)methyl)phthalazin-1(2H)-one]
112% | 0.0184 µM | 0.002 µM | 121% |  |  | O=c1c2ccc(S(=O)(=O)c3ccc4occc4c3)cc2cnn1Cc1cc[nH]n1 [Example 195, 2-((1H-pyrazol-3-yl)methyl)-6-(benzofuran-5-ylsulfonyl)phthalazin-1(2H)-one]
98.9% | 0.0476 µM | 0.017 µM | 120% |  |  | O=c1c2ccc(S(=O)(=O)c3cnn(C4CC4)c3)cc2cnn1Cc1ccn(C2CC2)n1 [Example 196, 2-((1-cyclopropyl-1H-pyrazol-3-yl)methyl)-6-((1-cyclopropyl-1H-pyrazol-4-yl)sulfonyl)phthalazin-1(2H)-one]
106% | 0.0285 µM |  |  |  |  | Cn1ccc(S(=O)(=O)c2ccc3c(=O)n(Cc4ccc5occc5n4)ncc3c2)n1 [Example 336]
95.9% | 0.0855 µM |  |  |  |  | Cc1[nH]nc(Cn2ncc3cc(S(=O)(=O)c4ccn(C)n4)ccc3c2=O)c1Cl [Example 337]
96.4% | 0.0244 µM |  |  |  |  | Cc1c(Cl)c(Cn2ncc3cc(S(=O)(=O)c4cn[nH]c4)ccc3c2=O)nn1C [Example 338]
110% | 0.0678 µM |  |  |  |  | O=c1c2ccc(S(=O)(=O)c3cc[nH]n3)cc2cnn1Cc1ccn(C2CC2)n1 [Example 339]
111% | 0.0293 µM |  |  |  |  | O=c1c2ccc(S(=O)(=O)c3cnn(C(F)F)c3)cc2cnn1Cc1ccc2c(n1)CCO2 [Example 340]
107% | 0.109 µM |  |  |  |  | N=S(=O)(c1cn[nH]c1)c1ccc2c(=O)n(Cc3ccc4c(n3)CCO4)ncc2c1 (centres unmarked) [Example 341]

Emax (recombinant human PKM2) | EC50 (recombinant human PKM2) | EC50 (recombinant human PKLR) | Emax (recombinant human PKLR; [1]) | hPKM2 Emax (recombinant human PKM2) | hPKLR Emax (%) (recombinant human PKLR; [1]) | Compound
104% | 0.0844 µM |  |  |  |  | Cc1nc(Cn2ncc3cc(S(=O)(=O)c4cn[nH]c4)ccc3c2=O)c(F)cc1F [Example 342]
98.2% | 0.0976 µM |  |  |  |  | Cc1cc(Cn2ncc3cc(S(=O)(=O)c4cnn(C(F)F)c4)ncc3c2=O)n[nH]1 [Example 343]
107% | 0.0315 µM |  |  |  |  | O=c1c2ccc(S(=O)(=O)c3cn[nH]c3)cc2cnn1Cc1ccc2c(n1)OCCO2 [Example 344]
113% | 0.0114 µM |  |  |  |  | Cc1cc2nc(Cn3ncc4cc(S(=O)(=O)c5cn[nH]c5)ccc4c3=O)ccc2o1 [Example 345]
96.7% | 0.0423 µM |  |  |  |  | O=c1c2ccc(S(=O)(=O)c3csc(C4CC4)n3)cc2cnn1Cc1cc[nH]n1 [Example 346]
104% | 0.0245 µM |  |  |  |  | O=c1c2cnc(S(=O)(=O)c3cn[nH]c3)cc2cnn1Cc1ccc2c(n1)CCO2 [Example 347]
94.3% | 0.0516 µM |  |  |  |  | Cc1[nH]nc(Cn2ncc3cc(S(=O)(=O)c4cnn(C)c4)ccc3c2=O)c1C [Example 348]
92.5% | 0.0453 µM |  |  |  |  | Cc1[nH]nc(Cn2ncc3cc(S(=O)(=O)c4cnn(C(F)F)c4)ccc3c2=O)c1Cl [Example 349]
94.9% | 0.0367 µM |  |  |  |  | COC(C)c1nc(S(=O)(=O)c2ccc3c(=O)n(Cc4ccc5c(n4)CCO5)ncc3c2)cs1 (centres unmarked) [Example 350]
103% | 0.0939 µM |  |  |  |  | COC(C)c1nc(S(=O)(=O)c2ccc3c(=O)n(Cc4cc[nH]n4)ncc3c2)cs1 (centres unmarked) [Example 351]
117% | 0.0275 µM |  |  |  |  | COC(C)c1nc(S(=O)(=O)c2ccc3c(=O)n(Cc4ccc5occc5n4)ncc3c2)cs1 (centres unmarked) [Example 352]
105% | 0.0988 µM |  |  |  |  | COC(C)c1nc(S(=O)(=O)c2ccc3c(=O)n(Cc4nc(C)c(C)cc4F)ncc3c2)cs1 (centres unmarked) [Example 353]
106% | 0.0233 µM |  |  |  |  | O=c1c2ccc(S(=O)(=O)c3cn[nH]c3)cc2cnn1Cc1ccc2c(n1)NCCO2 [Example 354]
101% | 0.0394 µM |  |  |  |  | Cc1c(Cn2ncc3cc(S(=O)(=O)c4cnn(C)c4)ccc3c2=O)nn2c1OCC2 [Example 355]
95.5% | 0.053 µM |  |  |  |  | COC(C)c1nc(S(=O)(=O)c2ccc3c(=O)n(Cc4cc5n(n4)CCO5)ncc3c2)cs1 (centres unmarked) [Example 356]
100% | 0.0771 µM |  |  |  |  | Cc1nc(S(=O)(=O)c2ccc3c(=O)n(Cc4cc5n(n4)CCO5)ncc3c2)cs1 [Example 357]
98.4% | 0.077 µM |  |  |  |  | Cc1cc(Cn2ncc3cc(S(=O)(=O)c4csc(C)n4)ccc3c2=O)n[nH]1 [Example 358]
112% | 0.0242 µM |  |  |  |  | Cc1cc(S(=O)(=O)c2ccc3c(=O)n(Cc4ccc5c(n4)CCO5)ncc3c2)n[nH]1 [Example 359]
113% | 0.0714 µM |  |  |  |  | COCCn1ccc(S(=O)(=O)c2ccc3c(=O)n(Cc4ccc5c(n4)CCO5)ncc3c2)n1 [Example 360]
105% | 0.042 µM |  |  |  |  | Cc1c(Cn2ncc3cc(S(=O)(=O)c4cn[nH]c4)ccc3c2=O)nn2c1OCC2 [Example 362]

Compound | Emax (recombinant human PKM2) | EC50 (recombinant human PKM2) | EC50 (recombinant human PKLR) | Emax (recombinant human PKLR; [1]) | hPKM2 Emax (recombinant human PKM2) | hPKLR Emax (%) (recombinant human PKLR; [1])
O=c1c2ccc(S(=O)(=O)c3cnn(CC(F)(F)F)c3)cc2cnn1Cc1cc[nH]n1 [Example 361] | 93.2% | 0.0794 µM |  |  |  | 
